Experimental findings from patent EP4596561A1, “PHOSPHORUS-CONTAINING COMPOUND, PHARMACEUTICAL COMPOSITION AND USE THEREOF” (Suzhou Genhouse Bio Co., Ltd., priority 2022, dated 2024) are described below.

The term IC50 denotes the concentration needed to halve the response being measured. Broadly, the AUC(0-t) is the area under the concentration-time curve up to a stated or last time point. High values mean more exposure, low ones less exposure. Usually Cmax stands for the maximum level reached in the sampled fluid or tissue.

Data set [1] has as its target T1, Cytochrome Oxidase P450 1A2 (Homo sapiens, UniProt P05177).
T1 construct: a biochemical reaction of prepared liver microsomes supplemented with a redox coenzyme; from tissue; host or cells: liver microsomes
T1 sequence (P05177 1-516): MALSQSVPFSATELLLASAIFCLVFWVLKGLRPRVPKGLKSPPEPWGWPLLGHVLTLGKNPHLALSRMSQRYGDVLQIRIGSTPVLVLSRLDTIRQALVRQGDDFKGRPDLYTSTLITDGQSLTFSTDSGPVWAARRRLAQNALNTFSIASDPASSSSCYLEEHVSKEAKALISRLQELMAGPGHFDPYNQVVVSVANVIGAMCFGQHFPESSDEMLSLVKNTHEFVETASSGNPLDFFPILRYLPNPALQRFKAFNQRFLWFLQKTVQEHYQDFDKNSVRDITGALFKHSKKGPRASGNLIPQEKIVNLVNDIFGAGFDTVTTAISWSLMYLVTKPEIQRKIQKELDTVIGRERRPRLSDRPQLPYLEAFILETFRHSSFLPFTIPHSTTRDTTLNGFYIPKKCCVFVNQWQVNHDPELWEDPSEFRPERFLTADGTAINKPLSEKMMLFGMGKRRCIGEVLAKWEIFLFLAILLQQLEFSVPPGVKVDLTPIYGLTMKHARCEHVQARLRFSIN
The data set can be described thus: Inhibition of cytochrome oxidase P450. Type of data set: in vitro ADME. The conditions noted are these: liver microsomes. The procedure:
(§1) Efficacy Experimental Example 5: Inhibition of Cytochrome Oxidase P450
(§2) 100 mM K-Buffer: 9.5 mL of stock solution A was mixed with 40.5 mL of stock solution B, the total volume was adjusted to […] with ultrapure water, and the buffer was titrated to pH 7.4 with KOH or H3PO4.
(§3) The test substance powder was prepared into a stock solution at a certain concentration with DMSO or another organic solvent, which was then further diluted with a suitable organic solvent.
(§4) The liver microsomal in vitro incubation system for the CYP450 enzyme metabolism phenotype study was a biochemical reaction of prepared liver microsomes supplemented with a redox coenzyme and an enzyme-specific selective inhibitor under simulated physiological temperature and environment conditions.
(§5) The concentration of the parent drug or a metabolite thereof in the incubation solution was determined by LC-MS/MS.

The target of data set [2] is T2, Cytochrome Oxidase P450 2C19 (Homo sapiens, UniProt P33261).
T2 construct: a biochemical reaction of prepared liver microsomes supplemented with a redox coenzyme; from tissue; host or cells: liver microsomes
T2 sequence (P33261 whole entry): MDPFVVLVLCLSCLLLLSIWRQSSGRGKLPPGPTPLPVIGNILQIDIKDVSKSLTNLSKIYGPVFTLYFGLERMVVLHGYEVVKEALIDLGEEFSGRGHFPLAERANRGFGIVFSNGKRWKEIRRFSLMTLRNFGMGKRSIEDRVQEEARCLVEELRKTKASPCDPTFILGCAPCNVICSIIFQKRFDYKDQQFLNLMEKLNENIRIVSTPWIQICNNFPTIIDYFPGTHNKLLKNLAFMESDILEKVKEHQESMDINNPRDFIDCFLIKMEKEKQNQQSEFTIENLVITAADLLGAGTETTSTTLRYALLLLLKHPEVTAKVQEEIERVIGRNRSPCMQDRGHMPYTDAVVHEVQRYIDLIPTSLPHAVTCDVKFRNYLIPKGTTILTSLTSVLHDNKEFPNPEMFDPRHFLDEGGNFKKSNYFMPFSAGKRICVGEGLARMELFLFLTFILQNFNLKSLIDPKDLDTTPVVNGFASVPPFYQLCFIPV
The data set can be described thus: Inhibition of cytochrome oxidase P450. Type of data set: in vitro ADME. Particulars: liver microsomes. Here is the method: as §1, §2, §3, §4, §5
Background: Microsomes from liver hold many membrane-bound enzymes, among them those of drug oxidation.

The target in data set [3] is T3, Cytochrome Oxidase P450 2C9 (Homo sapiens, UniProt P11712).
T3 construct: a biochemical reaction of prepared liver microsomes supplemented with a redox coenzyme; from tissue; host or cells: liver microsomes
T3 sequence (P11712 whole entry): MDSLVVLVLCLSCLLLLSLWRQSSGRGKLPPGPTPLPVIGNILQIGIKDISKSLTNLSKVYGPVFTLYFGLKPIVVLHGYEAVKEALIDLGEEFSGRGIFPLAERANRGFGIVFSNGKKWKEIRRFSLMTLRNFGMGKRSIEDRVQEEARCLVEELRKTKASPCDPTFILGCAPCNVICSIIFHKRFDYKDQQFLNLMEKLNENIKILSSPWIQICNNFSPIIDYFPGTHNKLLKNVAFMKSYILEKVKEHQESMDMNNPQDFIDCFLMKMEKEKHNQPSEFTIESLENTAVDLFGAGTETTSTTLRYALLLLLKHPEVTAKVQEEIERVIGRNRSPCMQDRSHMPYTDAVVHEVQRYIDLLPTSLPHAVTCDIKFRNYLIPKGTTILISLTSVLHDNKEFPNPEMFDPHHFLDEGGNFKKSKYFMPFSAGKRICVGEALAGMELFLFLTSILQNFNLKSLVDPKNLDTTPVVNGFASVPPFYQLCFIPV
The data set can be described thus: Inhibition of cytochrome oxidase P450. It is filed as in vitro ADME. Particulars: liver microsomes. The procedure:
as §1, §2, §3, §4, §5

Data set [4] has as its target T4, Cytochrome Oxidase P450 2D6 (Homo sapiens, UniProt P10635).
T4 construct: a biochemical reaction of prepared liver microsomes supplemented with a redox coenzyme; from tissue; host or cells: liver microsomes
The data set can be described thus: Inhibition of cytochrome oxidase P450. Type of data set: in vitro ADME. The conditions noted are these: liver microsomes. The procedure: as §1, §2, §3, §4, §5

In data set [5] the target is T5, Cytochrome Oxidase P450 3A4-M (Homo sapiens, UniProt P08684).
T5 construct: a biochemical reaction of prepared liver microsomes supplemented with a redox coenzyme; from tissue; host or cells: liver microsomes
T5 sequence (P08684 whole entry): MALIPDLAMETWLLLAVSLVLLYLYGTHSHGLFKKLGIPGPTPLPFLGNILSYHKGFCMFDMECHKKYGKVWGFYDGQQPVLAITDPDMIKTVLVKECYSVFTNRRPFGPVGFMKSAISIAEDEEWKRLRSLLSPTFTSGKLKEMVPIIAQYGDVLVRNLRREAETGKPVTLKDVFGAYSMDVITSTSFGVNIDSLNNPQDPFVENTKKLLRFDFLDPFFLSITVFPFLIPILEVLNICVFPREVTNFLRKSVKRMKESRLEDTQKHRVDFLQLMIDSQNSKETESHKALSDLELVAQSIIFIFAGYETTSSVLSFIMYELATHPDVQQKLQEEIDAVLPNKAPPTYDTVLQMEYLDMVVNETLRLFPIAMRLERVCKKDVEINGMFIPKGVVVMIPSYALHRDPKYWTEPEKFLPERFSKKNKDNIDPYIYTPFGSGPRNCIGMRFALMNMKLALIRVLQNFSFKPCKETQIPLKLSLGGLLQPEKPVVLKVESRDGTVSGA
The experiment in a line: Inhibition of cytochrome oxidase P450. It is filed as in vitro ADME. Particulars: liver microsomes. Here is the method:
as §1, §2, §3, §4, §5

Data set [6] has as its system NCI-H2452 (NF2 wide-type). The experiment in a line: Inhibition of cell proliferation (CellTiter-Lumi). It is filed as cell-based. Particulars: Homo sapiens, 72 h + another 72 h treatment.
In another data set the test system is NCI-H28 (NF2 wide-type). The experiment in a line: Inhibition of cell proliferation (CellTiter-Lumi). The conditions noted are these: Homo sapiens, 72 h + another 72 h treatment. It is filed as cell-based.
Data set [7] has as its system MSTO-211H (NF2 wide-type). The data set can be described thus: Inhibition of cell proliferation (CellTiter-Lumi). It is filed as cell-based. Particulars: Homo sapiens, 72 h + another 72 h treatment. Here is the method:
NCI-H2052 (NF2 mutant), NCI-H226 (NF2 mutant), NCI-H2452 (NF2 wide-type), NCI-H28 (NF2 wide-type), and MSTO-211H (NF2 wide-type) cells were cultured in RPMI 1640 complete media.
The normally growing cells described above were digested with a trypsin cell-digesting solution, centrifuged, counted, and then plated in a 96-well plate at a density of 1000 cells per well. Administration was performed 24 h after the cell plating. Inhibitors at different concentration gradients were added at 10 µL per well, and three replicate wells were set for each concentration point. The starting concentration was 20 µM and diluted 8 times with a 4-fold gradient. A corresponding negative control group treated with 0.1% DMSO was also set up. After 72 h of drug treatment, the cell culture plate to be tested was taken out of the incubator. The culture medium in the 96-well plate was pipetted, and 190 µL of fresh RPMI 1640 complete medium was added. Another administration was performed, and the cells were cultured for another 72 h. The 96-well plate was taken out and allowed to equilibrate at room temperature for 10 min. The medium in the 96-well plate was pipetted, and 200 µL of CellTiter-Lumi™ luminescent cell viability detection solution (mixed with a medium in a ratio of 1:1) was added. After shaking for two minutes, the mixture was reacted at room temperature for 10 min. Then, 150 µL of liquid was pipetted from the transparent 96-well plate and transferred to a white 96-well plate for chemiluminescence reading. The background value was subtracted from the value for each well to calculate the cell survival rate. Survival rate (%) = […]. Sample is the chemiluminescence of the drug-treated group, and Vehicle is the […] of the DMSO control group. A sigmoidal dose-survival rate curve was plotted using a non-linear regression model in the GraphPad Prism 7.0 software, and the IC50 values or GI50 values were calculated.

A further data set is described as follows: in vivo. Particulars: mouse, plasma, po.

Molecules are shown by their SMILES.

T4 sequence (P10635 whole entry): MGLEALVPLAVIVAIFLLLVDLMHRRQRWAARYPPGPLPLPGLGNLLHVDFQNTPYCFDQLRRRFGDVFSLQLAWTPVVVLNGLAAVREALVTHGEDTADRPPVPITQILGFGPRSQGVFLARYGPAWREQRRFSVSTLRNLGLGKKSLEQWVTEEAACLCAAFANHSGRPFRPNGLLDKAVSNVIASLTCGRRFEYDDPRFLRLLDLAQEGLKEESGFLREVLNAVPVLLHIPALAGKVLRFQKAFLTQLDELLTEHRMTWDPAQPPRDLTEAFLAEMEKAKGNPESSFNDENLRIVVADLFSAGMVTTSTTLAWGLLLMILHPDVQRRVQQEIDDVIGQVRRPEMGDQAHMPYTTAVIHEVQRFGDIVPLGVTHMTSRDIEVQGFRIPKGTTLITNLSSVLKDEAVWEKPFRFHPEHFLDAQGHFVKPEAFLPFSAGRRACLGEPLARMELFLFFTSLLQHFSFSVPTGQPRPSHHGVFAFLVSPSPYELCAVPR
Experimental for in vivo: After adding 5% DMSO, the mixture was vortexed. 15% HS15 was then added, and the mixture was vortexed again. Finally, a 10% aqueous cyclodextrin solution was added, and the resulting mixture was vortexed to prepare the final concentration solution or suspension.

As for `CP(C)(=O)c1ccc2c(c1)c1ccccc1n2-c1ccc(C(F)(F)F)cc1` [Example 1], the IC50 in data set [1], in data set [2], in [3], in data set [4] and in data set [5] was greater than 10 µM in each case.

On to `CP(C)(=O)c1ccc2c(c1)c1cccnc1n2-c1ccc(C(F)(F)F)cc1` [Example 5], for which the half-maximal inhibitory concentration (IC50) in data set [6] is greater than 20 µM; in the data set on NCI-H28 (NF2 wide-type), greater than 1.25 µM; in data set [7] it was greater than 5 µM.

Turning to `CP(C)(=O)c1ccc2c(Oc3ccc(C(F)(F)F)cc3)cccc2c1` [Example 7], the IC50 in data set [1], in data set [2], in [3], in [4] and in data set [5] was greater than 10 µM each time. Moreover, the AUC(0-t) in the data set “in vivo” (100 mg/kg) was 2830 µM·h.

`Cn1cnc(-c2cc(P(C)(C)=O)cnc2Nc2ccc(C(F)(F)F)cc2)c1` [Example 8]: the IC50 in data set [1], in [2], in data set [3], in data set [4] and in [5] was greater than 10 µM each time. Also, the AUC(0-t) in the data set “in vivo” (200 mg/kg) stood at 2430 µM·h.

Turning to `CP(C)(=O)c1ccc(Nc2ccc(C(F)(F)F)cc2)c(-c2ccccn2)c1` [Example 10], the values for the IC50 (in data set [6]; with NCI-H28 (NF2 wide-type); in data set [7]) were greater than 5 µM, greater than 1.25 µM and greater than 1.25 µM, respectively. In the data set “in vivo” (200 mg/kg), this molecule came in with an exposure AUC(0-t) of 3380 µM·h. Further, the concentration in “in vivo” (200 mg/kg) peaked (Cmax) at 148 µM.

With `CP(C)(=O)c1ccc(Nc2ccc(C(F)(F)F)cc2)c(-c2ncccn2)c1` [Example 12], the IC50 is greater than 20 µM in [6], greater than 5 µM with NCI-H28 (NF2 wide-type) and greater than 20 µM in data set [7].

Regarding `Cn1cnc(-c2cc(P(C)(C)=O)ccc2Nc2ccc(C(F)(F)F)cc2)c1` [Example 14], the IC50 in [1], in data set [2], in [3], in [4] and in data set [5] was greater than 10 µM throughout. This molecule had an AUC(0-t) in “in vivo” (200 mg/kg) of 3140 µM·h. The Cmax in the data set “in vivo” (200 mg/kg) turned out to be 141 µM.

For `CP(C)(=O)c1cnc(Nc2ccc(C(F)(F)F)cc2)c(-c2cn3c(n2)CCC3)c1` [Example 22], the IC50 in data set [1], in data set [2], in data set [3], in data set [4] and in data set [5] was greater than 10 µM in each case. The same molecule returned an area under the curve AUC(0-t) in “in vivo” (200 mg/kg) of 2520 µM·h.
